The text below walks through data of patent publication US11511095B2, “Portable transdermal administration patch apparatus and preparation method thereof” (CHANGZHOU HUALIAN HEALTH DRESSING LTD., priority 2017, dated 2022).

The series can be described thus: Simulation experiment of in vitro transdermal drug delivery in pig skin (Franz diffusion cell). The format is in vitro ADME. Conditions: 37° C. An excerpt: Simulation experiment of in vitro transdermal drug delivery in pig skin:
(1) pig skin with a thickness of 300-500 μm and an area of 1.0 cm^2 was selected and placed between the Franz diffusion cell supply cell and the Franz diffusion cell receiving cell. An […] side of the pig skin was oriented toward the supply cell, and then the patch apparatus was placed in the supply cell and was attached to the epidermis of the pig skin. The receiving cell was filled with phosphate buffered saline to simulate blood circulation, and the temperature in the receiving cell was maintained at 37° C. to simulate human body temperature.
(2) Set the electric quantity: 0.1 mA, the conduction time is 24 hours as desired. Press a power switch of the patch apparatus.

Setting [1] is: this method/apparatus, quantity of electric charge 2.4 mA * hour (0.1 mA, 24 hours).
The mark [2] stands for this setting: traditional patch, quantity of electric charge 0 mA * hour, 24 hours.

Molecules are shown by their SMILES.

On to `Cc1nccn1CC1CCc2c(c3ccccc3n2C)C1=O` (stereo not shown) [ondansetron], for which the “Administration dosage (μg/cm^2 skin area contacted by the drug formulation)” value under setting [1] is recorded as 53.2 μg/cm^2 and the “Administration dosage (μg/cm^2 skin area contacted by the drug formulation)” value under setting [2] is 1.2 μg/cm^2. Also, the Administration speed under setting [1] is 1.8 μg/(cm^2 * h) and the Administration speed under setting [2] is listed as 0.1 μg/(cm^2 * h).
